Experimental data published in patent US20020114813A1, “Compounds” (priority 1990, published 2002).
Read-outs that look alike come from different tables or passages of the source.

System: H.Ep-2 cell line
Assay: Cytotoxicity in vitro, cell survival by trypan blue exclusion
Format: cell-based
Conditions: Homo sapiens, read-out: IC50 (dose required to give 50% cell survival)
Method: Cytotoxicity in vitro. The human epidermoid carcinoma cell line H.Ep-2 was originally obtained from a metastatic nodule in the neck of a patient with a primary tumour of the larynx. it was established in tissue culture after two generations in X-irradiated, cortisone-treated rats. Immunocytochemistry has shown the cells to bind the H17E2 antibody, but not HMFGl, which was used as a negative control in these studies. Cells were cultured in RPMI 1640 tissue culture medium supplemented with 10% foetal calf serum (Gibco Ltd, Paisley, Scotland). For cell survival experiments, after harvesting with 0.02% EDTA, 5×10^5 cells were plated in quadruplicate into 25-cm^2 Falcon flasks (Becton Dickinson, N.J., USA). Twenty-four hours later the cytotoxic agent was added (either amygdalin alone, β-glucosidase alone, amygdalin plus β-glucosidase, potassium cyanide alone, amygdalin plus H17E2β-glucosidase conjugate or amygdalin plus HMFGl-β-glucosidase conjugate). After 24 h exposure, the medium containing the drug was replaced with fresh medium and the cells allowed to grow for a further 24 h before counting by haemacytometry, using trypan blue exclusion as the criterion for cell integrity.

Which IC50 (HEp-2, in the presence of 0.35 μM β-glucosidase) does the source give for `N#C[C@H](O[C@@H]1O[C@H](CO[C@@H]2O[C@H](CO)[C@@H](O)[C@H](O)[C@H]2O)[C@@H](O)[C@H](O)[C@H]1O)c1ccccc1` [amygdalin, D-mandelonitrile-β-D-glucosido-6-β-D-glycoside] here?
The IC50 was 600 ± 300 µM.

What about the IC50 (HEp-2, in the presence of 3.5 μM β-glucosidase) of the same molecule?
Its IC50 is 500 ± 200 µM.
